Measurements published in PMC8406298, “Discovery of Fungus-Specific Targets and Inhibitors Using Chemical Phenotyping of Pathogenic Spore Germination” (mBio, 2021).

What was measured:
[1] = system: normal human dermal fibroblasts (NHDF) cells; assay: Fibroblast cytotoxicity (CellTiter-Glo); type: cell-based; conditions: 10 µM
Procedure: PrimaPure normal human dermal fibroblasts (NHDF) cells (Genlatis PH10605A) were cultured and passaged in fibroblast growth medium (Genlatis PM116500) according to the manufacturer’s protocol. NHDF cells (1 × 10^3 per well) were plated in a 384-well plate in cell culture medium. The cells were incubated with each compound of interest at 10 μM concentration for 72 h at 37°C and 5% CO2. Following treatment, CellTiter-Glo (Promega) reagent was used to assay ATP-dependent luminescence and thus provide a measure of cell viability. […] For cytotoxicity dose-response curves (Fig. 4C and Fig. 5C), compounds were titrated from 80 μM to 0.5 μM in duplicates.

[2] = system: Cryptococcus yeast (CHY3833 and CHY3836); assay: Yeast replication secondary screen (OD600); type: cell-based, Cryptococcus neoformans serotype D (deneoformans); conditions: 10 μM, 12 h at 30°C
Procedure: (ii) Yeast replication. CHY3833 and CHY3836 were each grown in YPD liquid overnight at 30°C to saturation and then resuspended in 0.5× YPD at an OD600 of 0.005. Strains were aliquoted into 384-well plates with inhibitors and grown for 12 h at 30°C at […] before OD600 readings were taken. Compounds that caused a >10% decrease in growth were considered yeast growth inhibitors.

O=c1[nH]sc2ccccc12 [compound 17520]
Cytotoxicity: Relative Cell Viability (% of Negative Control) [1]: 3.3 % of Negative Control
Yeast Inhibition: % Inhibition [2]: 101.5%

Oc1ccc2cc(Br)ccc2c1 [compound 27144]
Cytotoxicity: Relative Cell Viability (% of Negative Control) [1]: 31.7 % of Negative Control
Yeast Inhibition: % Inhibition [2]: 100.0%

Oc1ccc(-c2ccccc2)cc1Br [compound 27297]
Cytotoxicity: Relative Cell Viability (% of Negative Control) [1]: 4.7 % of Negative Control
Yeast Inhibition: % Inhibition [2]: 101.8%

Cc1n[nH]c(C)c1Br [compound 76937]
Cytotoxicity: Relative Cell Viability (% of Negative Control) [1]: 59.9 % of Negative Control
Yeast Inhibition: % Inhibition [2]: 22.1%

N#CSC1C=CS(=O)(=O)C1 (centres unmarked) [compound 99741]
Cytotoxicity: Relative Cell Viability (% of Negative Control) [1]: 40.8 % of Negative Control
Yeast Inhibition: % Inhibition [2]: 49.2%

COc1ccc(C2=CC(=O)C=CC2=O)cc1 [compound 121637]
Cytotoxicity: Relative Cell Viability (% of Negative Control) [1]: 3.0 % of Negative Control
Yeast Inhibition: % Inhibition [2]: 100.9%

Cc1ccc(Nc2cc(Cl)nc(N)n2)cc1Cl [compound 243059]
Cytotoxicity: Relative Cell Viability (% of Negative Control) [1]: 46.1 % of Negative Control
Yeast Inhibition: % Inhibition [2]: 98.9%

COc1ccc(CCN2C(=O)C=CC2=O)cc1OC [compound 282938]
Cytotoxicity: Relative Cell Viability (% of Negative Control) [1]: 24.9 % of Negative Control
Yeast Inhibition: % Inhibition [2]: 101.4%

N#Cc1nc2c(nc1C#N)-c1ccccc1C2=O [compound 292929]
Cytotoxicity: Relative Cell Viability (% of Negative Control) [1]: 5.9 % of Negative Control
Yeast Inhibition: % Inhibition [2]: 100.6%

Cc1ccc(CN2C(=O)C=CC2=O)cc1 [compound 302279]
Cytotoxicity: Relative Cell Viability (% of Negative Control) [1]: 3.1 % of Negative Control
Yeast Inhibition: % Inhibition [2]: 101.5%

O=S(=O)(Nc1cccc2ccccc12)c1ccc(Cl)cc1 [compound 310131]
Cytotoxicity: Relative Cell Viability (% of Negative Control) [1]: 67.0 % of Negative Control
Yeast Inhibition: % Inhibition [2]: 59.8%

CCOC(=O)c1ccc(NC(=O)CCc2ccc(CC)o2)cc1 [compound 652808]
Cytotoxicity: Relative Cell Viability (% of Negative Control) [1]: 113.1 % of Negative Control
Yeast Inhibition: % Inhibition [2]: 28.0%

CC(C)(C)c1ccc(-c2csc(N)n2)cc1 [compound 673711]
Cytotoxicity: Relative Cell Viability (% of Negative Control) [1]: 86.3 % of Negative Control
Yeast Inhibition: % Inhibition [2]: 94.3%

Cc1ccc2occ(C=O)c(=O)c2c1 [compound 688709]
Cytotoxicity: Relative Cell Viability (% of Negative Control) [1]: 91.6 % of Negative Control
Yeast Inhibition: % Inhibition [2]: 100.0%

CC(C)Cc1nnc(NC(=O)C(Cl)Cl)s1 [compound 697528]
Cytotoxicity: Relative Cell Viability (% of Negative Control) [1]: 96.1 % of Negative Control
Yeast Inhibition: % Inhibition [2]: 71.6%

Oc1ccccc1-c1cc2ccccc2[nH]1 [compound 700009]
Cytotoxicity: Relative Cell Viability (% of Negative Control) [1]: 96.3 % of Negative Control
Yeast Inhibition: % Inhibition [2]: 82.2%

Cc1ccc(C)c(S(=O)(=O)n2cnc3ccccc32)c1 [compound 700148]
Cytotoxicity: Relative Cell Viability (% of Negative Control) [1]: 84.1 % of Negative Control
Yeast Inhibition: % Inhibition [2]: 59.4%

O=C(NC(=S)NCc1ccccc1)c1ccccc1 [compound 700976]
Cytotoxicity: Relative Cell Viability (% of Negative Control) [1]: 97.5 % of Negative Control
Yeast Inhibition: % Inhibition [2]: 78.1%

O=C(Nc1nc2c(s1)CCc1ccccc1-2)c1ccco1 [compound 701070]
Cytotoxicity: Relative Cell Viability (% of Negative Control) [1]: 92.9 % of Negative Control
Yeast Inhibition: % Inhibition [2]: 1.7%

NC(=O)/C=C/C(=O)Nc1cccc(C(F)(F)F)c1 [compound 707936]
Cytotoxicity: Relative Cell Viability (% of Negative Control) [1]: 3.5 % of Negative Control
Yeast Inhibition: % Inhibition [2]: 101.2%

Cc1ccc(C)c(N2C(=O)C=CC2=O)c1 [compound 709153]
Cytotoxicity: Relative Cell Viability (% of Negative Control) [1]: 3.3 % of Negative Control
Yeast Inhibition: % Inhibition [2]: 101.9%

CC1CCN(C(=O)COc2ccc(-c3ccccc3)cc2)CC1 [compound 717711]
Cytotoxicity: Relative Cell Viability (% of Negative Control) [1]: 90.0 % of Negative Control
Yeast Inhibition: % Inhibition [2]: 28.9%

CN(C)c1ccc(NC(=O)/C=C/c2ccccc2Cl)cc1 [compound 723732]
Cytotoxicity: Relative Cell Viability (% of Negative Control) [1]: 79.8 % of Negative Control
Yeast Inhibition: % Inhibition [2]: 27.8%

CC(C)=CC(=O)Nc1ccc(OCc2ccccc2)cc1 [compound 731806]
Cytotoxicity: Relative Cell Viability (% of Negative Control) [1]: 91.1 % of Negative Control
Yeast Inhibition: % Inhibition [2]: 64.0%

Cc1nc(NC(=O)CCc2ccccc2)sc1C [compound 733834]
Cytotoxicity: Relative Cell Viability (% of Negative Control) [1]: 96.8 % of Negative Control
Yeast Inhibition: % Inhibition [2]: 89.7%

Cc1ccccc1OCCn1cnc2ccccc21 [compound 749608]
Cytotoxicity: Relative Cell Viability (% of Negative Control) [1]: 96.0 % of Negative Control
Yeast Inhibition: % Inhibition [2]: 75.5%

COc1ccc(Cc2nc3ccccc3[nH]2)cc1 [compound 763894]
Cytotoxicity: Relative Cell Viability (% of Negative Control) [1]: 98.0 % of Negative Control
Yeast Inhibition: % Inhibition [2]: 23.2%

COc1ccccc1NS(=O)(=O)c1cc(Cl)ccc1Cl [compound 766532]
Cytotoxicity: Relative Cell Viability (% of Negative Control) [1]: 56.4 % of Negative Control
Yeast Inhibition: % Inhibition [2]: 96.0%

Oc1ccc(C2(c3cccc(Cl)c3)CCCC2)cc1 [compound 767639]
Cytotoxicity: Relative Cell Viability (% of Negative Control) [1]: 96.2 % of Negative Control
Yeast Inhibition: % Inhibition [2]: 74.0%

O=C(/C=C/c1ccco1)N1CCCc2ccccc21 [compound 768672]
Cytotoxicity: Relative Cell Viability (% of Negative Control) [1]: 109.0 % of Negative Control
Yeast Inhibition: % Inhibition [2]: 37.4%

CCc1ccc2nc(N)sc2c1 [compound 773093]
Cytotoxicity: Relative Cell Viability (% of Negative Control) [1]: 62.5 % of Negative Control
Yeast Inhibition: % Inhibition [2]: 73.1%

Nc1nc(-c2ccc(Oc3ccccc3)cc2)cs1 [compound 780598]
Cytotoxicity: Relative Cell Viability (% of Negative Control) [1]: 97.5 % of Negative Control
Yeast Inhibition: % Inhibition [2]: 81.0%

Cc1ccc(OCCn2c(C)nc3ccccc32)cc1 [compound 790960]
Cytotoxicity: Relative Cell Viability (% of Negative Control) [1]: 90.6 % of Negative Control
Yeast Inhibition: % Inhibition [2]: 81.4%

C[n+]1sc(Nc2ccccc2)nc1-c1ccccc1 [compound 803194]
Cytotoxicity: Relative Cell Viability (% of Negative Control) [1]: 16.5 % of Negative Control
Yeast Inhibition: % Inhibition [2]: 98.4%

O=Cc1sc(=O)n(Cc2ccccc2)c1Cl [compound 820752]
Cytotoxicity: Relative Cell Viability (% of Negative Control) [1]: 115.4 % of Negative Control
Yeast Inhibition: % Inhibition [2]: 101.8%

O=C(Nc1ccc2[nH]c3c(c2c1)CCCC3)c1ccco1 [compound 852322]
Cytotoxicity: Relative Cell Viability (% of Negative Control) [1]: 77.3 % of Negative Control
Yeast Inhibition: % Inhibition [2]: 65.7%

COC(=O)c1c(N)sc(C)c1-c1ccc(F)cc1 [compound 874714]
Cytotoxicity: Relative Cell Viability (% of Negative Control) [1]: 75.9 % of Negative Control
Yeast Inhibition: % Inhibition [2]: 87.6%

Cc1ccc(C)c(CSc2nc3ccccc3[nH]2)c1 [compound 899259]
Cytotoxicity: Relative Cell Viability (% of Negative Control) [1]: 84.5 % of Negative Control
Yeast Inhibition: % Inhibition [2]: 45.3%

c1ccc(CNc2ncnc3scc(-c4cccs4)c23)nc1 [compound 944383]
Cytotoxicity: Relative Cell Viability (% of Negative Control) [1]: 92.9 % of Negative Control
Yeast Inhibition: % Inhibition [2]: 53.4%

Clc1ccc2nc(SCCc3ccccc3)[nH]c2c1 [compound 955598]
Cytotoxicity: Relative Cell Viability (% of Negative Control) [1]: 34.2 % of Negative Control
Yeast Inhibition: % Inhibition [2]: 98.2%

Cc1cccc2nc(CSC(=S)NCc3cccnc3)cn12 [compound 957599]
Cytotoxicity: Relative Cell Viability (% of Negative Control) [1]: 10.0 % of Negative Control
Yeast Inhibition: % Inhibition [2]: 59.9%

C=C(C)Cn1c(Cc2ccc(OC)cc2)nc2ccccc21 [compound 962333]
Cytotoxicity: Relative Cell Viability (% of Negative Control) [1]: 73.9 % of Negative Control
Yeast Inhibition: % Inhibition [2]: 53.4%

Nc1nc(COc2ccc3ccccc3c2)cs1 [compound 973573]
Cytotoxicity: Relative Cell Viability (% of Negative Control) [1]: 108.1 % of Negative Control
Yeast Inhibition: % Inhibition [2]: 75.7%

O=S(=O)(Nc1ccc(Br)cc1F)c1cccc(Cl)c1 [compound 983861]
Cytotoxicity: Relative Cell Viability (% of Negative Control) [1]: 101.6 % of Negative Control
Yeast Inhibition: % Inhibition [2]: 55.6%

Nc1nc(-c2ccccn2)cs1 [compound 1092459]
Yeast Inhibition: % Inhibition [2]: 100.0%

CCOC(=O)c1c(-c2ccc(C)o2)csc1NC(=O)c1ccc2c(c1)OCCO2 [compound 1186249]
Cytotoxicity: Relative Cell Viability (% of Negative Control) [1]: 75.3 % of Negative Control
Yeast Inhibition: % Inhibition [2]: 44.6%

COC(=O)c1sc(S(=O)(=O)Nc2cccc(C(F)(F)F)c2)c(C(=O)OC)c1C [compound 1190482]
Cytotoxicity: Relative Cell Viability (% of Negative Control) [1]: 90.9 % of Negative Control
Yeast Inhibition: % Inhibition [2]: 2.5%

O=C1NC(=S)S/C1=C\c1ccccc1F [compound 1204290]
Cytotoxicity: Relative Cell Viability (% of Negative Control) [1]: 92.9 % of Negative Control
Yeast Inhibition: % Inhibition [2]: 71.4%

Cn1c(=O)c(Nc2ccc(O)cc2)c2c3c(cccc31)C(=O)c1ccccc1-2 [compound 1263311]
Cytotoxicity: Relative Cell Viability (% of Negative Control) [1]: 86.6 % of Negative Control
Yeast Inhibition: % Inhibition [2]: -2.6%

O=S(=O)(Nc1ccc(Br)cc1F)c1ccc(Cl)c(C(F)(F)F)c1 [compound 1307471]
Cytotoxicity: Relative Cell Viability (% of Negative Control) [1]: 98.7 % of Negative Control
Yeast Inhibition: % Inhibition [2]: 59.9%

O=C(NN1C(=O)/C(=C\c2ccco2)SC1=S)c1ccc(OC(F)F)cc1 [compound 1391595]
Cytotoxicity: Relative Cell Viability (% of Negative Control) [1]: 93.6 % of Negative Control
Yeast Inhibition: % Inhibition [2]: 65.6%
